Reference: ChEMBL document CHEMBL5352496, “Design, synthesis and biological activity of hybrid antifungals derived from fluconazole and mebendazole” (Eur J Med Chem, 2023)
Converted amounts (≈) assume the structure as drawn.

Key:
Candida albicans [1] = test: Antifungal activity against Candida albicans CMRC 19 incubated for 24 hrs by broth microdilution method; assay type: functional
Nakaseomyces glabratus [2] = test: Antifungal activity against Candida glabrata CMRC 89 incubated for 24 hrs by broth microdilution method; assay type: functional
Candida albicans [3] = test: Antifungal activity against Candida albicans CMRC 192 incubated for 24 hrs by broth microdilution method; assay type: functional
Cryptococcus neoformans = test: Antifungal activity against Cryptococcus neoformans IFRC 340 incubated for 24 hrs by broth microdilution method; assay type: functional
Candida tropicalis = test: Antifungal activity against Candida tropicalis FDC 138 incubated for 24 hrs by broth microdilution method; assay type: functional
Nakaseomyces glabratus [4] = test: Antifungal activity against Candida glabrata FDC 192 incubated for 24 hrs by broth microdilution method; assay type: functional
Candida parapsilosis = test: Antifungal activity against Candida parapsilosis ATCC 22019 incubated for 24 hrs by broth microdilution method; assay type: functional; conditions: Lodderomyces parapsilosis
Candida albicans [5] = test: Antifungal activity against Candida albicans FDC 151 incubated for 24 hrs by broth microdilution method; assay type: functional
HepG2 = test: Cytotoxicity against human HepG2 cells assessed as cell viability at 25 ug/ml incubated for 48 hrs by MTT assay; assay type: toxicity, cell-based; conditions: hepg2, 48 h, dose 25 µg/ml
BEAS-2B = test: Cytotoxicity against human BEAS-2B cells assessed as cell viability at 25 ug/ml incubated for 48 hrs by MTT assay; assay type: toxicity, cell-based; conditions: dose 25 µg/ml

## OC(CSc1nc2ccccc2[nH]1)(Cn1cncn1)c1ccc(F)cc1F (stereo not drawn)
Candida albicans [1]
  MIC: > 64 µg/mL
Nakaseomyces glabratus [2]
  MIC: > 64 µg/mL
Candida albicans [3]
  MIC: > 64 µg/mL
Cryptococcus neoformans
  MIC: 32 µg/mL (≈ 82.6 µM)
Candida tropicalis
  MIC: 32 µg/mL (≈ 82.6 µM)
Nakaseomyces glabratus [4]
  MIC: > 64 µg/mL
Candida parapsilosis
  MIC: > 64 µg/mL
Candida albicans [5]
  MIC: > 64 µg/mL

## OC(CSc1nc2ccccc2s1)(Cn1cncn1)c1ccc(F)cc1F (stereo not drawn)
Candida albicans [1]
  MIC: 16 µg/mL (≈ 39.6 µM)
Nakaseomyces glabratus [2]
  MIC: 32 µg/mL (≈ 79.1 µM)
Candida albicans [3]
  MIC: 32 µg/mL (≈ 79.1 µM)
Cryptococcus neoformans
  MIC: > 64 µg/mL
Candida tropicalis
  MIC: > 64 µg/mL
Nakaseomyces glabratus [4]
  MIC: > 64 µg/mL
Candida parapsilosis
  MIC: > 64 µg/mL
Candida albicans [5]
  MIC: > 64 µg/mL

## OC(CSc1nc2ccccc2[nH]1)(Cn1cncn1)c1ccccc1 (stereo not drawn)
Candida albicans [1]
  MIC: > 64 µg/mL
Nakaseomyces glabratus [2]
  MIC: 16 µg/mL (≈ 45.5 µM)
Candida albicans [3]
  MIC: > 64 µg/mL
Cryptococcus neoformans
  MIC: > 64 µg/mL
Candida tropicalis
  MIC: 32 µg/mL (≈ 91.1 µM)
Nakaseomyces glabratus [4]
  MIC: > 64 µg/mL
Candida parapsilosis
  MIC: 32 µg/mL (≈ 91.1 µM)
Candida albicans [5]
  MIC: > 64 µg/mL

## OC(CSc1nc2ccccc2s1)(Cn1cncn1)c1ccccc1 (stereo not drawn)
Candida albicans [1]
  MIC: 16 µg/mL (≈ 43.4 µM)
Nakaseomyces glabratus [2]
  MIC: 32 µg/mL (≈ 86.8 µM)
Candida albicans [3]
  MIC: 16 µg/mL (≈ 43.4 µM)
Cryptococcus neoformans
  MIC: 16 µg/mL (≈ 43.4 µM)
Candida tropicalis
  MIC: 16 µg/mL (≈ 43.4 µM)
Nakaseomyces glabratus [4]
  MIC: 32 µg/mL (≈ 86.8 µM)
Candida parapsilosis
  MIC: 8 µg/mL (≈ 21.7 µM)
Candida albicans [5]
  MIC: 32 µg/mL (≈ 86.8 µM)

## OC(CSc1nc2ccccc2[nH]1)(Cn1cncn1)c1ccc(Cl)cc1 (stereo not drawn)
Candida albicans [1]
  MIC: 8 µg/mL (≈ 20.7 µM)
Nakaseomyces glabratus [2]
  MIC: 16 µg/mL (≈ 41.5 µM)
Candida albicans [3]
  MIC: 8 µg/mL (≈ 20.7 µM)
Cryptococcus neoformans
  MIC: 16 µg/mL (≈ 41.5 µM)
Candida tropicalis
  MIC: 8 µg/mL (≈ 20.7 µM)
Nakaseomyces glabratus [4]
  MIC: 16 µg/mL (≈ 41.5 µM)
Candida parapsilosis
  MIC: 16 µg/mL (≈ 41.5 µM)
Candida albicans [5]
  MIC: 4 µg/mL (≈ 10.4 µM)

## O=C(c1ccccc1)c1ccc2[nH]c(SCC(O)(Cn3cncn3)c3ccc(F)cc3)nc2c1 (stereo not drawn)
Candida albicans [1]
  MIC: 8 µg/mL (≈ 16.9 µM)
Nakaseomyces glabratus [2]
  MIC: 16 µg/mL (≈ 33.8 µM)
Candida albicans [3]
  MIC: 8 µg/mL (≈ 16.9 µM)
Cryptococcus neoformans
  MIC: 32 µg/mL (≈ 67.6 µM)
Candida tropicalis
  MIC: 16 µg/mL (≈ 33.8 µM)
Nakaseomyces glabratus [4]
  MIC: > 64 µg/mL
Candida parapsilosis
  MIC: > 64 µg/mL
Candida albicans [5]
  MIC: 16 µg/mL (≈ 33.8 µM)

## O=C(c1ccccc1)c1ccc2[nH]c(SCC(O)(Cn3cncn3)c3ccc(F)cc3F)nc2c1 (stereo not drawn)
Candida albicans [1]
  MIC: 2 µg/mL (≈ 4.07 µM)
Nakaseomyces glabratus [2]
  MIC: 8 µg/mL (≈ 16.3 µM)
Candida albicans [3]
  MIC: 1 µg/mL (≈ 2.03 µM)
Cryptococcus neoformans
  MIC: 1 µg/mL (≈ 2.03 µM)
Candida tropicalis
  MIC: 1 µg/mL (≈ 2.03 µM)
Nakaseomyces glabratus [4]
  MIC: 1 µg/mL (≈ 2.03 µM)
Candida parapsilosis
  MIC: 2 µg/mL (≈ 4.07 µM)
Candida albicans [5]
  MIC: 2 µg/mL (≈ 4.07 µM)

## OC(CSc1nc2ccccc2[nH]1)(Cn1cncn1)c1ccc(Cl)cc1Cl (stereo not drawn)
Candida albicans [1]
  MIC: 8 µg/mL (≈ 19 µM)
Nakaseomyces glabratus [2]
  MIC: 16 µg/mL (≈ 38.1 µM)
Candida albicans [3]
  MIC: 8 µg/mL (≈ 19 µM)
Cryptococcus neoformans
  MIC: 8 µg/mL (≈ 19 µM)
Candida tropicalis
  MIC: 8 µg/mL (≈ 19 µM)
Nakaseomyces glabratus [4]
  MIC: 16 µg/mL (≈ 38.1 µM)
Candida parapsilosis
  MIC: 8 µg/mL (≈ 19 µM)
Candida albicans [5]
  MIC: 8 µg/mL (≈ 19 µM)

## O=C(c1ccccc1)c1ccc2[nH]c(SCC(O)(Cn3cncn3)c3ccc(Cl)cc3Cl)nc2c1 (stereo not drawn)
Candida albicans [1]
  MIC: 0.5 µg/mL (≈ 0.953 µM)
Nakaseomyces glabratus [2]
  MIC: 2 µg/mL (≈ 3.81 µM)
Candida albicans [3]
  MIC: 1 µg/mL (≈ 1.91 µM)
Cryptococcus neoformans
  MIC: 1 µg/mL (≈ 1.91 µM)
Candida tropicalis
  MIC: 0.125 µg/mL (≈ 0.238 µM)
Nakaseomyces glabratus [4]
  MIC: 1 µg/mL (≈ 1.91 µM)
Candida parapsilosis
  MIC: 2 µg/mL (≈ 3.81 µM)
Candida albicans [5]
  MIC: 0.063 µg/mL (≈ 0.12 µM)

## O=C(c1ccccc1)c1ccc2[nH]c(SCC(O)(Cn3cncn3)c3ccccc3)nc2c1 (stereo not drawn)
Candida albicans [1]
  MIC: 4 µg/mL (≈ 8.78 µM)
Nakaseomyces glabratus [2]
  MIC: 8 µg/mL (≈ 17.6 µM)
Candida albicans [3]
  MIC: 4 µg/mL (≈ 8.78 µM)
Cryptococcus neoformans
  MIC: 2 µg/mL (≈ 4.39 µM)
Candida tropicalis
  MIC: 8 µg/mL (≈ 17.6 µM)
Nakaseomyces glabratus [4]
  MIC: 4 µg/mL (≈ 8.78 µM)
Candida parapsilosis
  MIC: 2 µg/mL (≈ 4.39 µM)
Candida albicans [5]
  MIC: 8 µg/mL (≈ 17.6 µM)

## O=C(c1ccccc1)c1ccc2[nH]c(SCC(O)(Cn3cncn3)c3ccc(Cl)cc3)nc2c1 (stereo not drawn)
Candida albicans [1]
  MIC: 0.5 µg/mL (≈ 1.02 µM)
Nakaseomyces glabratus [2]
  MIC: 1 µg/mL (≈ 2.04 µM)
Candida albicans [3]
  MIC: 0.5 µg/mL (≈ 1.02 µM)
HepG2
  Activity: Toxic
Cryptococcus neoformans
  MIC: 0.125 µg/mL (≈ 0.255 µM)
Candida tropicalis
  MIC: < 0.063 µg/mL
BEAS-2B
  Activity: Toxic
Nakaseomyces glabratus [4]
  MIC: 0.125 µg/mL (≈ 0.255 µM)
Candida parapsilosis
  MIC: < 0.063 µg/mL
Candida albicans [5]
  MIC: < 0.063 µg/mL

## OC(c1ccccc1)c1ccc2[nH]c(SCC(O)(Cn3cncn3)c3ccccc3)nc2c1 (stereo not drawn)
Candida albicans [1]
  MIC: 8 µg/mL (≈ 17.5 µM)
Nakaseomyces glabratus [2]
  MIC: 16 µg/mL (≈ 35 µM)
Candida albicans [3]
  MIC: 8 µg/mL (≈ 17.5 µM)
Cryptococcus neoformans
  MIC: 8 µg/mL (≈ 17.5 µM)
Candida tropicalis
  MIC: 2 µg/mL (≈ 4.37 µM)
Nakaseomyces glabratus [4]
  MIC: 8 µg/mL (≈ 17.5 µM)
Candida parapsilosis
  MIC: 4 µg/mL (≈ 8.74 µM)
Candida albicans [5]
  MIC: 2 µg/mL (≈ 4.37 µM)

## OC(CSc1nc2ccccc2s1)(Cn1cncn1)c1ccc(F)cc1 (stereo not drawn)
Candida albicans [1]
  MIC: 8 µg/mL (≈ 20.7 µM)
Nakaseomyces glabratus [2]
  MIC: 8 µg/mL (≈ 20.7 µM)
Candida albicans [3]
  MIC: 16 µg/mL (≈ 41.4 µM)
Cryptococcus neoformans
  MIC: 32 µg/mL (≈ 82.8 µM)
Candida tropicalis
  MIC: 16 µg/mL (≈ 41.4 µM)
Nakaseomyces glabratus [4]
  MIC: > 64 µg/mL
Candida parapsilosis
  MIC: 16 µg/mL (≈ 41.4 µM)
Candida albicans [5]
  MIC: > 64 µg/mL

## OC(CSc1nc2ccccc2s1)(Cn1cncn1)c1ccc(Cl)cc1Cl (stereo not drawn)
Candida albicans [1]
  MIC: 16 µg/mL (≈ 36.6 µM)
Nakaseomyces glabratus [2]
  MIC: 16 µg/mL (≈ 36.6 µM)
Candida albicans [3]
  MIC: 8 µg/mL (≈ 18.3 µM)
Cryptococcus neoformans
  MIC: 16 µg/mL (≈ 36.6 µM)
Candida tropicalis
  MIC: 8 µg/mL (≈ 18.3 µM)
Nakaseomyces glabratus [4]
  MIC: 16 µg/mL (≈ 36.6 µM)
Candida parapsilosis
  MIC: 16 µg/mL (≈ 36.6 µM)
Candida albicans [5]
  MIC: 8 µg/mL (≈ 18.3 µM)

## O=[N+]([O-])c1ccc2[nH]c(SCC(O)(Cn3cncn3)c3ccc(F)cc3F)nc2c1 (stereo not drawn)
Candida albicans [1]
  MIC: > 64 µg/mL
Nakaseomyces glabratus [2]
  MIC: > 64 µg/mL
Candida albicans [3]
  MIC: > 64 µg/mL
Cryptococcus neoformans
  MIC: 32 µg/mL (≈ 74 µM)
Candida tropicalis
  MIC: 32 µg/mL (≈ 74 µM)
Nakaseomyces glabratus [4]
  MIC: > 64 µg/mL
Candida parapsilosis
  MIC: > 64 µg/mL
Candida albicans [5]
  MIC: 32 µg/mL (≈ 74 µM)

## OC(CSc1nc2ccccc2s1)(Cn1cncn1)c1ccc(Cl)cc1 (stereo not drawn)
Candida albicans [1]
  MIC: 4 µg/mL (≈ 9.93 µM)
Nakaseomyces glabratus [2]
  MIC: 2 µg/mL (≈ 4.96 µM)
Candida albicans [3]
  MIC: 4 µg/mL (≈ 9.93 µM)
Cryptococcus neoformans
  MIC: 4 µg/mL (≈ 9.93 µM)
Candida tropicalis
  MIC: 4 µg/mL (≈ 9.93 µM)
Nakaseomyces glabratus [4]
  MIC: 8 µg/mL (≈ 19.9 µM)
Candida parapsilosis
  MIC: 8 µg/mL (≈ 19.9 µM)
Candida albicans [5]
  MIC: 8 µg/mL (≈ 19.9 µM)

## OC(CSc1nc2ccccc2[nH]1)(Cn1cncn1)c1ccc(F)cc1 (stereo not drawn)
Candida albicans [1]
  MIC: 0.125 µg/mL (≈ 0.338 µM)
Nakaseomyces glabratus [2]
  MIC: 1 µg/mL (≈ 2.71 µM)
Candida albicans [3]
  MIC: 0.25 µg/mL (≈ 0.677 µM)
HepG2
  Activity: Toxic
Cryptococcus neoformans
  MIC: 0.125 µg/mL (≈ 0.338 µM)
Candida tropicalis
  MIC: < 0.063 µg/mL
BEAS-2B
  Activity: Toxic
Nakaseomyces glabratus [4]
  MIC: 0.125 µg/mL (≈ 0.338 µM)
Candida parapsilosis
  MIC: < 0.063 µg/mL
Candida albicans [5]
  MIC: 0.063 µg/mL (≈ 0.171 µM)

## OC(Cn1cncn1)(Cn1cncn1)c1ccc(F)cc1F [FLUCONAZOLE]
Candida albicans [1]
  MIC: 0.25 µg/mL (≈ 0.816 µM)
Nakaseomyces glabratus [2]
  MIC: 2 µg/mL (≈ 6.53 µM)
Candida albicans [3]
  MIC: 0.25 µg/mL (≈ 0.816 µM)
Cryptococcus neoformans
  MIC: 0.5 µg/mL (≈ 1.63 µM)
Candida tropicalis
  MIC: 0.25 µg/mL (≈ 0.816 µM)
Nakaseomyces glabratus [4]
  MIC: 1 µg/mL (≈ 3.27 µM)
Candida parapsilosis
  MIC: 0.5 µg/mL (≈ 1.63 µM)
Candida albicans [5]
  MIC: 0.5 µg/mL (≈ 1.63 µM)
